Test results as given in patent US20240109912A1, “TRICYCLIC PYRIMIDINES AS CYCLIN-DEPENDENT KINASE 7 (CDK7) INHIBITORS” (JANSSEN PHARMACEUTICA NV, priority 2020, published 2024).
Where “and” joins values, the source holds several entries; their conditions need not be identical. Identical values can stand only once. Like-named read-outs stand apart in the source and are kept apart here.

Assays:
[1] = tested on: RNA polymerase II Serine 5 phosphorylation in A549 cells overexpressing CDK7 mutant (C312S); test: Imaging-based cellular RNA PolII Ser5 phosphorylation assay in A549 cells overexpressing CDK7-mutant (C312S); assay type: cell-based, human; settings: for IC50: Homo sapiens, A549, A549 cells overexpressing CDK7 mutant (C312S), read-out: CDK7_ A549 mutant hCDK7(pIC50) (converted); for CDK7_ A549 mutant hCDK7(pIC50): A549 cells overexpressing CDK7 mutant (C312S)
Outline: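 A stably transduced A549 pool overexpressing CDK7 C312S, a mutant that blocks covalent binding at Cys312, while retaining endogenous wild-type CDK7 was used. Ser5 phosphorylation was measured by imaging, and IC50 values were derived.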

[2] = tested on: RNA polymerase II Serine 5 phosphorylation (CDK7) in A549 cells
[3] = target: CDK7/cyclinH/MAT1 trimeric complex (Homo sapiens (Human), UniProt P50613); test: In vitro CDK7 assay, potency of irreversible covalent inhibitors (kinact/KI)
[4] = CDK7 (20 nM enz.) (KI, μM), 20 nM enz.
[5] = read-out: CDK7 (20 nM enz.) (kinact, s^−1), 20 nM enz.
[6] = read-out: CDK7 (20 nM enz.) (kinact/ KI, M^−1*s^−1), 20 nM enz.

Chain of CDK7/cyclinH/MAT1 trimeric complex (P50613 whole entry): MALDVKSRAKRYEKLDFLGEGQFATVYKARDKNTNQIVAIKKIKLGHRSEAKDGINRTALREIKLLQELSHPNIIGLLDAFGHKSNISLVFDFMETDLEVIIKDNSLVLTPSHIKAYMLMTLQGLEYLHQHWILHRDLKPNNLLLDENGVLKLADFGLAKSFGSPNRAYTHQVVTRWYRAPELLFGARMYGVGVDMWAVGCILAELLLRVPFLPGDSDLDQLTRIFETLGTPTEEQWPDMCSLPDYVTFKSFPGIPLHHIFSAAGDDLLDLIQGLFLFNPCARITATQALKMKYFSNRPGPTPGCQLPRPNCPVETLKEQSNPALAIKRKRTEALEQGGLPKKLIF
Chain of CDK7/cyclinH/MAT1 trimeric complex (P51946 whole entry partner): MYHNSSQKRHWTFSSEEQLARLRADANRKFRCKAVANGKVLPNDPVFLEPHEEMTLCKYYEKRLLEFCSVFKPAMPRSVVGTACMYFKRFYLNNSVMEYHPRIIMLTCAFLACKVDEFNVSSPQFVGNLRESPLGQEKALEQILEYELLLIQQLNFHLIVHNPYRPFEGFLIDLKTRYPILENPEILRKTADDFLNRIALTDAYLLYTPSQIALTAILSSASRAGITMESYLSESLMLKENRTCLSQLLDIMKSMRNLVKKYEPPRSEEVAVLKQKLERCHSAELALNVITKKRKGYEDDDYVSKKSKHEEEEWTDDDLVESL
Chain of CDK7/cyclinH/MAT1 trimeric complex (P51948 whole entry partner): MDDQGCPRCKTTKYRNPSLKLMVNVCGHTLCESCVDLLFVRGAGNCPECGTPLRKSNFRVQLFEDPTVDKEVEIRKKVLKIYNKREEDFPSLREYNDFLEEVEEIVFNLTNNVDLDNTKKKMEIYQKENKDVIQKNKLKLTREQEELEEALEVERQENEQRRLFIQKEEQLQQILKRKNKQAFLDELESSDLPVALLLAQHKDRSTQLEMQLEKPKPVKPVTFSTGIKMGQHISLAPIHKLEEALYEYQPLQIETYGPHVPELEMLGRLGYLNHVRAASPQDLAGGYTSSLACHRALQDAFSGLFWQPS

Row | IC50 [1] | melting point | IC50 [2] | Ki [3, 4] | kinact [3, 5] | kinact/KI [3, 6] | CDK7_ A549 mutant hCDK7(pIC50) [1] | CDK7 (20 nM enz.) (kinact, s^−1) ([3]; 20 nM enz.) | CDK7 (20 nM enz.) (kinact/ KI, M^−1*s^−1) ([3]; 20 nM enz.) | Ki ([3]; CDK7 (KI(μM)), Table B) | kinact ([3]; read-out: CDK7 (kinact, s^−1), Table B) | kinact/KI ([3]; read-out: CDK7 (kinact/KI, M^−1*s^−1), Table B) | Compound
1 | > 10000 nM | 175 °C | 209 nM | 0.094 µM | 5.18e-05 s⁻¹ | 667 M⁻¹ s⁻¹ |  |  |  |  |  |  | C=CC(=O)N1CC(N2CCC(c3cc(F)c4c(c3)Nc3ncnc(N5CCOCC5)c3[C@@H](C)O4)CC2)C1 (single isomer, unassigned) [compound 46]
2 | > 10000 nM | 123 °C | 646 nM | 0.265 µM | 3.84e-05 s⁻¹ | 145 M⁻¹ s⁻¹ |  |  |  |  |  |  | C=CC(=O)N1CC(N2CCC(c3ccc4c(c3)Nc3ncnc(N5CCOCC5)c3[C@H](CC)O4)CC2)C1 (single isomer, unassigned) [compound 75]
3 |  | 250 °C | 257 nM | 0.283 µM |  |  | <5 | 5.21e-05 s⁻¹ | 184.255 M⁻¹ s⁻¹ |  |  |  | C=CC(=O)N1CC(N2CCC(c3cc4c(cn3)O[C@H](C)c3c(ncnc3N3CCOCC3)N4)CC2)C1 (single isomer, unassigned) [compound 60]
4 | 7760 nM | 200 °C | 81.3 nM | 0.234 µM | 4.3e-05 s⁻¹ | 184 M⁻¹ s⁻¹ |  |  |  |  |  |  | C=CC(=O)N1CCC(N2CC(c3cc(C)c4c(c3)Nc3ncnc(N5CCS(=O)(=O)CC5)c3CO4)C2)CC1 [compound 87]
5 | > 10000 nM | 189 °C | 115 nM | 0.16 µM | 5.91e-05 s⁻¹ | 370 M⁻¹ s⁻¹ |  |  |  |  |  |  | CC#CC(=O)N1CC(N2CCC(c3cc(C)c4c(c3)Nc3ncnc(N5CCS(=O)(=O)CC5)c3CO4)CC2)C1 [compound 151]
6 | > 10000 nM | 151 °C | 457 nM | 0.192 µM | 5.05e-05 s⁻¹ | 263 M⁻¹ s⁻¹ |  |  |  |  |  |  | C=CC(=O)N1CCC(N2CC(c3cc(C)c4c(c3)Nc3ncnc(N5CCOCC5)c3CO4)C2)C1 (stereo not drawn) [compound 16]
7 | > 10000 nM | 124 °C | 1660 nM | 0.457 µM | 3.9e-05 s⁻¹ | 85.3 M⁻¹ s⁻¹ |  |  |  |  |  |  | C=CC(=O)N1CC(N2CCC(c3ccc4c(c3)Nc3ncnc(N5CCOCC5)c3[C@@H](CC)O4)CC2)C1 (single isomer, unassigned) [compound 76]
8 | > 10000 nM | 175 °C | ~7940 nM |  |  |  |  |  |  | 2.05 µM | 8.56e-05 s⁻¹ | 41.8 M⁻¹ s⁻¹ | C=CC(=O)N1CC(N2CCCC(c3ccc4c(c3)Nc3ncnc(N5CCOCC5)c3CO4)C2)C1 (stereo not drawn) [compound 35]
9 | > 10000 nM | > 300 °C | 112 nM | 0.148 µM | 8.33e-05 s⁻¹ | 563 M⁻¹ s⁻¹ |  |  |  |  |  |  | C=CC(=O)N1CC(N2CCC(c3cc(C)c4c(c3)Nc3ncnc(N5CCS(=O)(=O)CC5)c3[C@@H](C)O4)CC2)C1 (single isomer, unassigned) [compound 84]
10 | > 10000 nM | 178 °C | 1170 nM | 0.67 µM | 4.31e-05 s⁻¹ | 64.4 M⁻¹ s⁻¹ |  |  |  |  |  |  | C=CC(=O)N1CCC(N2CC(c3cc4c(c(C(F)(F)F)c3)OCc3c(ncnc3-c3cnn(C)c3)N4)C2)CC1 [compound 44]
11 | > 10000 nM | > 300 °C | 2000 nM | 0.83 µM | 5.1e-05 s⁻¹ | 61.4 M⁻¹ s⁻¹ |  |  |  |  |  |  | C=CC(=O)N1CC(N2CCC(c3cc4c(cc3C#N)OCc3c(ncnc3N3CCOCC3)N4)CC2)C1 [compound 61]
12 |  | 237 °C | 81.3 nM and 79.4 nM and 61.7 nM | 0.0292 µM |  |  | <5 | 4.85e-05 s⁻¹ | 1658.55 M⁻¹ s⁻¹ and 891.412 M⁻¹ s⁻¹ |  |  |  | C=CC(=O)N1CC[C@@H](N2CC(c3cc(C)c4c(c3)Nc3ncnc(N5CCS(=O)(=O)CC5)c3[C@@H](C)O4)C2)C1 (single isomer, unassigned) [compound 122]
